# Data as given in patent US6750322B2, “Guanosine triphosphate (GTP) binding protein-coupled receptor proteins” (Banyu Pharmaceutical Co., Ltd., priority 1998, dated 2004).
# Columns and labels:
# [1] = target: T1, rat BG2 (Rattus norvegicus, UniProt Q9QYN8); assay: N-α-methylhistamine binding experiment on membrane fraction of COS7 cells expressing rat BG2; design: succeeded in isolating a full-length cDNA (rat BG2 cDNA) encoding a rat G protein-coupled receptor; expressed in transfected cells; host or cells: COS7 cells (membrane fraction)
# Protocol: (§1) Vectors expressing each BG2 receptor were prepared using pEF1x (Biochemical and Biophysical Research Communications, 1998, 250:68-71). Each BG2 expression vector was introduced into COS7 cells by lipofection method. Genes were introduced using Lipofectamine PLUS reagent (GIBCO-BRL) according to the attached manual.
# (§2) The cells were cultured at 37° C. for 24 hours in Dulbecco MEM medium (Asahi Techno Glass) to which fetal calf serum (Sigma) was added at a final concentration of 10%, in an incubator in which CO2 concentration was adjusted to 5%. Then, the cells were used for preparing a membrane fraction for the histamine binding experiment.
# (§3) The cells into which each BG2 receptor-expressing vector was introduced were crushed in 50 mM Tris-HCl pH 7.4 solution according to the standard method, uncrushed cells were removed by centrifuging at 1,000 g for 10 min, and supernatant was centrifuged at 100,000 g for 10 min to obtain a membrane fraction. The membrane fraction was resuspended in the 50 mM Tris-HCl pH 7.4 solution and centrifuged twice at 100,000 g for 10 min to finally obtain the membrane fraction. The membrane fraction obtained in this manner was suspended in 50 mM Tris-HCl pH 7.4 solution and used for the binding experiment.
# (§4) By using N-α-methylhistamine, a histamine analogue agonist, the binding experiment was conducted and the binding constants were determined (Table 2). […]
# [2] = target: T2, rat BG2-2 (Rattus norvegicus, UniProt Q9QYN8); assay: N-α-methylhistamine binding experiment on membrane fraction of COS7 cells expressing rat BG2-2; design: Vectors expressing each BG2 receptor were prepared using pEF1x; expressed in transfected cells; host or cells: COS7 cells (membrane fraction)
# Protocol: as §1, §2, §3, §4
# [3] = target: T3, human BG2 (Homo sapiens, UniProt Q9Y5N1); assay: N-α-methylhistamine binding experiment on membrane fraction of COS7 cells expressing human BG2; design: the G protein-coupled receptor protein encoded by the isolated human BG2 cDNA, the present inventors prepared cells expressing the protein; expressed in transfected cells
# Protocol: as §1, §2, §3, §4
# [4] = target: T3, human BG2; assay: Intracellular cAMP measurement by CRE-β-lactamase reporter (method of Zlokarmik et al.) in human BG2-expressing HEK 293 cells with forskolin; type: cell-based; design: the G protein-coupled receptor protein encoded by the isolated human BG2 cDNA, the present inventors prepared cells expressing the protein; expressed in transfected cells; host or cells: HEK 293 cells carrying a CRE-beta-lactamase reporter (Aurora), hygromycin-selected; settings: drug 1 μg/ml, forskolin 0.5 μM
# Protocol: This human BG2 expression vector was introduced by lipofection method into HEK 293 cells in which β-lactamase gene was ligated downstream of CRE sequence (purchased from Aurora). For introducing the gene, Lipofectamine PLUS reagent (GIBCO-BRL) was used and the experimental manipulation was performed according to the attached manual.
# Human BG2-expressing cells were selected by placing cells in a medium containing hygromycin, and cells which grew in the medium were used for a functional assay as human BG2-expressing cells.
# [5] = target: T2, rat BG2-2; settings: 10 μM forskolin; various histamine concentrations; 15 min; rat BG2-2-expressing cells
# Protocol: (§5) HEK293-CRE-BLA cells (Aurora) were cultured using the D-MEM/F-12 (1:1) mixed medium (GIBCO BRL) containing 10% fetal calf serum and 500 μg/ml G418 at 37° C. in the presence of 5% CO2. Effectene Transfection Reagent (QIAGEN) was used for gene introduction.
# (§6) A day prior to the gene introduction, cells were spread on a 6-well plate (NUNC) at 3×10^5 cells/well and 0.4 μg each of the rat BG-2 and BG2-2 expression vectors was introduced into them using 10 μl/well Effectene Transfection Reagent according to the attached manual. The cells were cultured at 37° C. in the presence of 5% CO2 for 48 hours.
# (§7) To isolate single cells into which the target gene was introduced, the cells were detached from a Petri dish by trypsin, and spread to a 96-well plate (NUNC) at 2000 to 250 cells/well. The cells were further cultured in selection medium containing hygromycin at 37° C. in the presence of 5% CO2 for 14 days. Wells containing cells consisting of a single colony were only selected and cells were passage-cultured to prepare a stable cell line. […] As a control, rat BG2-expressing cells were prepared in the same manner.
# [6] = target: T1, rat BG2; settings: 10 μM forskolin; various histamine concentrations; 15 min; rat BG2-expressing cells
# Protocol: as §5, §6, §7
# [7] = test system: control cells expressing nothing
# Protocol: The intracellular cAMP concentration was measured by the method of Zlokarmik et al. (Science, 1998, 279:84). In the method of Zlokarmik et al., intracellular cAMP concentration was measured by introducing the gene in which β-lactamase gene was ligated downstream of the sequence that increased transcription activity of a gene downstream thereof dependently on the increase of intracellular cAMP concentration (CRE: cAMP responsible element), and by measuring fluorescence changes in florescent substrates to which an activity of β-lactamase transcribed and translated by the change of cAMP concentration in the cells was added.
# Moreover, to measure the decrease of intracellular cAMP concentration mediated by the bound G protein in seven-transmembrane receptors, an activity of β-lactamase depending on the intracellular cAMP concentration was increased by adding forskolin and the decrease of cAMP in cells was measured with the decrease of β-lactamase activity when a ligand was reacted.
# The cells in which the above reporter gene and human BG2 were expressed were washed with PBS(−) buffer (GIBCO-BRL) twice, Cell-dissociation buffer (GIBCO-BRL) was added thereto, and the cells were warmed at 37° C. in a CO2 incubator for 3 min and dissociated from a flask by gently tapping the incubation flask. […]
# T3 sequence (Q9Y5N1 1-453 isoform Q9Y5N1-2): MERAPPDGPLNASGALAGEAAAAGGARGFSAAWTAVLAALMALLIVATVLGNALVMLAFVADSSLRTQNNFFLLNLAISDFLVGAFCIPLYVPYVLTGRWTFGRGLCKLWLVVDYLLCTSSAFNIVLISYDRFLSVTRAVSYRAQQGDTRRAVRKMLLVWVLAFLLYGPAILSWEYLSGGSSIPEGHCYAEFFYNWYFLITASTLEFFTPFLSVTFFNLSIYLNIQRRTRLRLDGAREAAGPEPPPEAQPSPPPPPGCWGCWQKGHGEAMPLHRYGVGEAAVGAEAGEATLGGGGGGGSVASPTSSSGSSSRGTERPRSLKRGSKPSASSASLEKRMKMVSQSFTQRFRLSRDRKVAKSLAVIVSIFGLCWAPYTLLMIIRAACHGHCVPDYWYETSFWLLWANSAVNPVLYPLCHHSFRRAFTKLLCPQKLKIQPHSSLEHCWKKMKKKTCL
# T1 sequence (Q9QYN8 1-413 isoform Q9QYN8-2): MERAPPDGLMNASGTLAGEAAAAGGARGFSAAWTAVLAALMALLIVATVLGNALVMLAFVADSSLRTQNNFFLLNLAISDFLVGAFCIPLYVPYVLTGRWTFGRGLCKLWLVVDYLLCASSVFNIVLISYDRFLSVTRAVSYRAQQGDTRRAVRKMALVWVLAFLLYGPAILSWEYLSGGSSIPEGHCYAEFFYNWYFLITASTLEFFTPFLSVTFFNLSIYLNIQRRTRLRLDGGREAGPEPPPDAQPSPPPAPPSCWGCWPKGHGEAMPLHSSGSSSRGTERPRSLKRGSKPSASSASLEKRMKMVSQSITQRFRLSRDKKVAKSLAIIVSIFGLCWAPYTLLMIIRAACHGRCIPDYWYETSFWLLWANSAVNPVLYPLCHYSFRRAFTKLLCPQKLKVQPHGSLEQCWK
# T2 sequence (Q9QYN8 whole entry): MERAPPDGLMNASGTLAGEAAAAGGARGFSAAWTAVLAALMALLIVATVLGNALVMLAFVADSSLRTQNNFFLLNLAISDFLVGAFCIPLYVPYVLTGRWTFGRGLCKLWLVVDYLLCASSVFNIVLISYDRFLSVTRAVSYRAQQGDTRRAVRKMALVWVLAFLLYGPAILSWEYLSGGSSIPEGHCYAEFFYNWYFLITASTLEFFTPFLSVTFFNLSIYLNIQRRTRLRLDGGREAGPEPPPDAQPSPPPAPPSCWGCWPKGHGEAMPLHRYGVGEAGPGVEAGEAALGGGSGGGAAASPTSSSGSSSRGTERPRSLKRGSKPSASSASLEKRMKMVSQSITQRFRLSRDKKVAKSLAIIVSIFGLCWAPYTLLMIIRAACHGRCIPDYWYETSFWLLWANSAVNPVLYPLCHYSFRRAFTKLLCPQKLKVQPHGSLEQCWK
smiles,measurement,setting,value
"CNCCc1c[nH]cn1.Cl.Cl [N-α-methylhistamine, Histamine, N-alpha-methyl-dihydrochloride]",Kd,"[1]; Rat BG2, COS7 membrane fraction, 30° C., 40 min, read-out: Binding Constant",503 ± 19.8 pM
same,specific binding (in words),"[1]; rat BG2, nonspecific with 2 μM N-α-methylhistamine",specifically bound
same,Kd,"[2]; Rat BG2-2, COS7 membrane fraction, 30° C., 40 min, read-out: Binding Constant",582 ± 26.1 pM
same,specific binding (in words),"[2]; rat BG2-2, nonspecific with 2 μM N-α-methylhistamine",specifically bound
same,Kd,"[3]; Human BG2, COS7 membrane fraction, 30° C., 40 min, read-out: Binding Constant",548 ± 75.1 pM
same,specific binding (in words),"[3]; human BG2, nonspecific with 2 μM N-α-methylhistamine",specifically bound
C[N+](C)(C)CCOC(N)=O [carbachol],reduction of intracellular cAMP concentration (in words),[4],did not reduce intracellular cAMP concentration
NCCc1ccc(O)c(O)c1 [dopamine],reduction of intracellular cAMP concentration (in words),[4],did not reduce intracellular cAMP concentration
"Cl.Cl.NCCc1c[nH]cn1 [histamine, Histamine dihydrochloride]",decrease of intracellular cAMP concentration (in words),[5],"decrease of intracellular cAMP concentration, dependent on histamine concentration, was confirmed"
same,decrease of intracellular cAMP concentration (in words),[6],"decrease of intracellular cAMP concentration, dependent on histamine concentration, was confirmed"
same,reduction of intracellular cAMP concentration (in words),[7],not observed
same,reduction of intracellular cAMP concentration (in words),[4],intracellular cAMP concentration was decreased
same,ratio of EM460/EM530 relative to the control,"[4]; control = 100, absence of forskolin = 0",35%
NCCc1c[nH]c2ccc(O)cc12 [serotonine],reduction of intracellular cAMP concentration (in words),[4],did not reduce intracellular cAMP concentration
